Source: patent US5596008A, “3,4-Diaryl substituted pyridines for the treatment of inflammation” (G. D. Searle & Co., priority 1995, dated 1997)
Read-outs that look alike come from different tables or passages of the source.

Legend:
COX-1 murine = biological target: T1, COX-1 murine (Mus musculus, UniProt P22437); test: COX-1 activity in vitro (recombinant enzyme, PGE2 ELISA); format: biochemical; details: arachidonic acid 10 μM, pH 8.0, pre-incubation 10-20 min, read-out: COX-1 murine ID50
T1 construct: A 2.0 kb fragment containing the coding region of either human or murine COX-1; made in house; host or cells: SF9 insect cells (recombinant baculovirus, vector pVL1393)
T1 sequence (P22437 27-602): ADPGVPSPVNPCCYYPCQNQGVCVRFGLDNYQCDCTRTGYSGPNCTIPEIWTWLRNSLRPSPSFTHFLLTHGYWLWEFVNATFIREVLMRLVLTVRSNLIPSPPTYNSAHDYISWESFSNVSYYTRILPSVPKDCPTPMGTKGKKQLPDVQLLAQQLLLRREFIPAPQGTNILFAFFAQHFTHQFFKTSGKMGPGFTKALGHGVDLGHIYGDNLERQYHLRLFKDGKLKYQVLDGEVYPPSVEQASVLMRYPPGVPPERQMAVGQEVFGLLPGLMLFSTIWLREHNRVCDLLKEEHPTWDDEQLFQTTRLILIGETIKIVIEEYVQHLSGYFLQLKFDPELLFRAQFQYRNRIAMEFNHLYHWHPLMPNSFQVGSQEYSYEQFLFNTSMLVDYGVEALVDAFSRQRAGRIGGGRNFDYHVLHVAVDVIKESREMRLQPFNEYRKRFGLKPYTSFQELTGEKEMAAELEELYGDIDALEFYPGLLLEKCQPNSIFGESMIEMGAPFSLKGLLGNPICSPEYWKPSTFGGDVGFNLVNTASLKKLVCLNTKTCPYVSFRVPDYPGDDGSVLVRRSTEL
Experimental: (§1) Evaluation of COX-1 and COX-2 activity in vitro
(§2) The COX-2 inhibition activity of the compounds of this invention illustrated in the Examples was determined by the following methods.
(§3) a. Preparation of recombinant COX baculoviruses
(§4) Recombinant COX-1 and COX-2 were prepared as described by Gierse et al, [J. Biochem., 305, 479-84 (1995)]. A 2.0 kb fragment containing the coding region of either human or murine COX-1 or human or murine COX-2 was cloned into a BamH1 site of the baculovirus transfer vector pVL1393 (Invitrogen) to generate the baculovirus transfer vectors for COX-1 and COX-2 in a manner similar to the method of D. R. O'Reilly et al (Baculovirus Expression Vectors: A Laboratory Manual (1992)). Recombinant baculoviruses were isolated by transfecting 4 μg of baculovirus transfer vector DNA into SF9 insect cells (2×10^8) along with 200 ng of linearized baculovirus plasmid DNA by the calcium phosphate method. See M. D. Summers and G. E. Smith, A Manual of Methods for Baculovirus Vectors and Insect Cell Culture Procedures, Texas Agric. Exp. Station Bull. 1555 (1987). Recombinant viruses were purified by three rounds of plaque purification and high titer (10^7 -10^8 pfu/ml) stocks of virus were prepared. For large scale production, SF9 insect cells were infected in 10 liter fermentors (0.5×10^6 /ml) with the recombinant baculovirus stock such that the multiplicity of infection was 0.1. After 72 hours the cells were centrifuged and the cell pellet homogenized in Tris/Sucrose (50 mM: 25%, pH 8.0) containing 1% 3-[(3-cholamidopropyl)dimethylammonio]-1-propanesulfonate (CHAPS). The homogenate was centrifuged at 10,000×G for 30 minutes, and the resultant supernatant was stored at -80° C. before being assayed for COX activity.
(§5) b. Assay for COX-1 and COX-2 activity:
(§6) COX activity was assayed as PGE2 formed/μg protein/time using an ELISA to detect the prostaglandin released. CHAPS-solubilized insect cell membranes containing the appropriate COX enzyme were incubated in a potassium phosphate buffer (50 mM, pH 8.0) containing epinephrine, phenol, and heme with the addition of arachidonic acid (10 μM). Compounds were pre-incubated with the enzyme for 10-20 minutes prior to the addition of arachidonic acid. Any reaction between the arachidonic acid and the enzyme was stopped after ten minutes at 37° C./room temperature by transferring 40 μl of reaction mix into 160 μl ELISA buffer and 25 μM indomethacin. The PGE2 formed was measured by standard ELISA technology (Cayman Chemical).

COX-2 murine = biological target: T2, COX-2 murine (Mus musculus, UniProt Q05769); test: COX-2 activity in vitro (recombinant enzyme, PGE2 ELISA); format: biochemical
T2 construct: human or murine COX-2 was cloned into a BamH1 site of the baculovirus transfer vector pVL1393; made in house; host or cells: SF9 insect cells (recombinant baculovirus, vector pVL1393)
T2 sequence (Q05769 18-604): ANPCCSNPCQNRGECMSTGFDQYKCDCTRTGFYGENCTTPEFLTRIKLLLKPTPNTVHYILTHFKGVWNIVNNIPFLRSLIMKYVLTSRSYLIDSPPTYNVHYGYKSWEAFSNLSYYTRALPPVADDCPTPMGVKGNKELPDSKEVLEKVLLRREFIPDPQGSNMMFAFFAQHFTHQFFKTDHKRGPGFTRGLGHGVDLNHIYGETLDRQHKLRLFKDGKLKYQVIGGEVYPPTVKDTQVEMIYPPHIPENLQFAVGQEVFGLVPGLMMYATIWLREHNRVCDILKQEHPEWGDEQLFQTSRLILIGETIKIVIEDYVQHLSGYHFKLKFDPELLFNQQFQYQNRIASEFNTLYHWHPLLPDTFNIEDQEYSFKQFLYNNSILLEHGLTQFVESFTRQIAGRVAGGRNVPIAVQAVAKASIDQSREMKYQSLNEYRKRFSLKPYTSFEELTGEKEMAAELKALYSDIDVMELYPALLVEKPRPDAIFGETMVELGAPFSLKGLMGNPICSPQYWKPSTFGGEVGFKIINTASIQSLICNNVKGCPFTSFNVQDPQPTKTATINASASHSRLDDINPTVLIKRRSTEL
Experimental: as §1, §2, §3, §4, §5, §6

[1] = COX-2 murine, arachidonic acid 10 μM, pH 8.0, pre-incubation 10-20 min, read-out: COX-2 murine ID50

Compound	IC50 (COX-1 murine) [µM]	IC50 (COX-2 murine; [1]) [µM]	IC50 (COX-2 murine) [µM]
COc1cc(-c2ccc(S(C)(=O)=O)cc2)c(-c2ccc(F)cc2)c(C(F)(F)F)n1 [Example 1, 5-(4-Fluorophenyl)-2-methoxy-4-[4-(methylsulfonyl)phenyl]-6-(trifluoromethyl)pyridine]	0.3	> 30	
CCOc1cc(-c2ccc(S(C)(=O)=O)cc2)c(-c2ccc(F)cc2)c(C(F)(F)F)n1 [Example 2, 2-Ethoxy-5-(4-fluorophenyl)-4-[4-(methylsulfonyl)phenyl]-6-(trifluoromethyl)pyridine]	0.3	> 30	
C#CCOc1cc(-c2ccc(S(C)(=O)=O)cc2)c(-c2ccc(F)cc2)c(C(F)(F)F)n1 [Example 3, 5-(4-Fluorophenyl)-4-[4-(methylsulfonyl)phenyl]-2-(2-propynyloxy)-6-(trifluoromethyl)pyridine]	0.2		> 30
CS(=O)(=O)c1ccc(-c2cc(Br)nc(C(F)(F)F)c2-c2ccc(F)cc2)cc1 [Example 4, 2-Bromo-5-(4-fluorophenyl)-4-[4-(methylsulfonyl)phenyl]-6-(trifluoromethyl)pyridine]	0.6	> 100	
